Test results taken from publication PMC5791972 (PLoS ONE, 2018).
Like-named read-outs stand apart in the source and are kept apart here.

Key:
M5 (h) = target: T1, M5 (h) (Homo sapiens, UniProt P08912); format: binding
T1 construct: host or cells: CHO cells
T1 sequence (P08912 1-532): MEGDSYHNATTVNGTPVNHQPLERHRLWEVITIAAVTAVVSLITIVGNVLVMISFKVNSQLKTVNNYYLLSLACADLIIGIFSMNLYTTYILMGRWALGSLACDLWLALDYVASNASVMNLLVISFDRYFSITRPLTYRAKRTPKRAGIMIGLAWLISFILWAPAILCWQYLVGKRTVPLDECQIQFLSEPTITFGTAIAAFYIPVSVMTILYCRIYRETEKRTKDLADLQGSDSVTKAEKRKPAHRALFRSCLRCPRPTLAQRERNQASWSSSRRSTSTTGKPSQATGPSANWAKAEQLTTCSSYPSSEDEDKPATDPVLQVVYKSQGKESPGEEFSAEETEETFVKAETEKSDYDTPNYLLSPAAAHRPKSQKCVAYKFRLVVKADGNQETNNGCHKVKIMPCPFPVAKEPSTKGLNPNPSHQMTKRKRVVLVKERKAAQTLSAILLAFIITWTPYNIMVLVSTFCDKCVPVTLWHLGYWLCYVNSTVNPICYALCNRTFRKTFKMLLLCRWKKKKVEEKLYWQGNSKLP

H1 (h) = target: T2, H1 (h) (Homo sapiens, UniProt P35367); format: binding; conditions: 1.0E-06 M
T2 construct: host or cells: HEK-293 cells

5-HT transporter (h) = target: T3, 5-HT transporter (h) (Homo sapiens, UniProt P31645); format: binding; conditions: 1 h
T3 construct: host or cells: CHO cells

MAO-A = target: T4, MAO-A (Rattus norvegicus, UniProt P21396); format: binding; conditions: 1 h, 1.0E-06 M
T4 construct: tissue Cerep; host or cells: rat cerebral cortex
T4 sequence (P21396 1-526): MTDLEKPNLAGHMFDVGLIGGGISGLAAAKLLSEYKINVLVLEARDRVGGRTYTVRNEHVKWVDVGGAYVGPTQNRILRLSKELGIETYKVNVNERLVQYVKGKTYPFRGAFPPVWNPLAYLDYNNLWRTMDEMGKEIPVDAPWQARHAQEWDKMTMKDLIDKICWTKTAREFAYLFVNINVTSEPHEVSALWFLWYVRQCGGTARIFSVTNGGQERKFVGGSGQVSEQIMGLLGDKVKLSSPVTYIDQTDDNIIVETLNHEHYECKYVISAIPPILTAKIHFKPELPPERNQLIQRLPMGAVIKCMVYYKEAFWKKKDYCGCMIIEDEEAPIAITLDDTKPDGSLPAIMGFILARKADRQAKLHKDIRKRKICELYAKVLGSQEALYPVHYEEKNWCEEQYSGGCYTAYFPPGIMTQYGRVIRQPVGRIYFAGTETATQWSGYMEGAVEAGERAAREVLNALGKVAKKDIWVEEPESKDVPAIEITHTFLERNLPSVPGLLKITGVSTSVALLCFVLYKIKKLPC

5-HT3 (h) = target: T5, 5-HT3 (h) (Homo sapiens, UniProt P46098); experiment: biochemical
T5 sequence (P46098 24-478): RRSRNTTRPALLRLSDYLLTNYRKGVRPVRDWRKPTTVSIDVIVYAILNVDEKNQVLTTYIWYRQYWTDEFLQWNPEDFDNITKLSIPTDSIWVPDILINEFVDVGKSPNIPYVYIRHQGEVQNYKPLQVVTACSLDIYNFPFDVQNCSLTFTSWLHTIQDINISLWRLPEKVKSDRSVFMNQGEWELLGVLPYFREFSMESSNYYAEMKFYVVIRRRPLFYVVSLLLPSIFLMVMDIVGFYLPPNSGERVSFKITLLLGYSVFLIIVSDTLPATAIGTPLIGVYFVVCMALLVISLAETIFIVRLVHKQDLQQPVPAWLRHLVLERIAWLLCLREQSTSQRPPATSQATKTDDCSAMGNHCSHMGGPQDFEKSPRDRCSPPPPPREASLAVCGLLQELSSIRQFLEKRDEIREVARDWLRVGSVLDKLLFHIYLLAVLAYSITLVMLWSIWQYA

D3 (h) = target: T6, D3 (h) (Homo sapiens, UniProt P35462); format: binding
T6 construct: host or cells: CHO cells

acetylcholinesterase (h) = target: T7, acetylcholinesterase (h) (Homo sapiens, UniProt P22303); experiment: enzyme assay; format: biochemical; conditions: 1.0E-06 M
T7 construct: host or cells: HEK-293 cells

PDE5 (h) (non-selective) = PDE5 (h) (non-selective) (Homo sapiens, UniProt O76074); experiment: biochemical
D4.4 (h) = target: T8, D4.4 (h) (Homo sapiens, UniProt P21917); experiment: biochemical; format: binding; conditions: 1.0E-06 M
T8 sequence (P21917 1-419): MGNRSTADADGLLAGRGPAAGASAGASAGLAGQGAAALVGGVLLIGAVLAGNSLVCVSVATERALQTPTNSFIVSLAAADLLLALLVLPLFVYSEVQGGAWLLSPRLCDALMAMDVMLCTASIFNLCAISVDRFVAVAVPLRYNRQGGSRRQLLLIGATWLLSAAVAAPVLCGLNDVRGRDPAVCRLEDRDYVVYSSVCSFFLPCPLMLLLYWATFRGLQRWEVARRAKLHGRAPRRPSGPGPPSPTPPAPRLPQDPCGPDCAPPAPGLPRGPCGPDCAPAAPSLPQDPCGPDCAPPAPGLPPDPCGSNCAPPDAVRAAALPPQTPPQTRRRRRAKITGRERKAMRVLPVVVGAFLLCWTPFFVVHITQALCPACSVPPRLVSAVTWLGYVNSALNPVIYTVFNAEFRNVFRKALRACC

D1 (h) = target: T9, D1 (h) (Homo sapiens, UniProt P21728); format: binding
T9 construct: host or cells: CHO cells

D2S (h) = D2S (h) (Homo sapiens, UniProt P14416); format: binding; parameters: host or cells: HEK-293 cells; conditions: 1.0E-06 M
Sequence of D2S (h) (P14416 1-414 isoform P14416-2): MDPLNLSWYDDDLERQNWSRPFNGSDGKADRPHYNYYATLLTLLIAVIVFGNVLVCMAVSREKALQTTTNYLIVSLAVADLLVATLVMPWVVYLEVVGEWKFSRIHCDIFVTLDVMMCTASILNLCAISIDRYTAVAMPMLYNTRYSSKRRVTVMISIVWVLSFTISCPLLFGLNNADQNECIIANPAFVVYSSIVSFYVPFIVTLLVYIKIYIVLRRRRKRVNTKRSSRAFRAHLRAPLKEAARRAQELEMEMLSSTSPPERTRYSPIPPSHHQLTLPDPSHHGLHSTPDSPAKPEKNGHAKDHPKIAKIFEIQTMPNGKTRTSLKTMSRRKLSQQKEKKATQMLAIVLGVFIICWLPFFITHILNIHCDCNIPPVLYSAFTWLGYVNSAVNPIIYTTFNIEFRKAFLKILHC

T9 sequence (P21728 whole entry): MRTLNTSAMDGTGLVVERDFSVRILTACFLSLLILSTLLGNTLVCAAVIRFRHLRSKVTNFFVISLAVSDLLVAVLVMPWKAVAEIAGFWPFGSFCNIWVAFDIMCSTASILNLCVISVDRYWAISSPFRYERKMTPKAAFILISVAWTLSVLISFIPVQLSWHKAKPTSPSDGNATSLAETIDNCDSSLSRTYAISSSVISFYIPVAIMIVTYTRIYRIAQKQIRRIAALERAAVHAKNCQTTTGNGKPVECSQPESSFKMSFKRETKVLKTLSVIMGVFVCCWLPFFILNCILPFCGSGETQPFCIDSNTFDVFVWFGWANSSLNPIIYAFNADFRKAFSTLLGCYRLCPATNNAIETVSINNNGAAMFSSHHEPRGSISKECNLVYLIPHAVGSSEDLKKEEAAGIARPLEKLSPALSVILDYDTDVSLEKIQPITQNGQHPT
T2 sequence (P35367 whole entry): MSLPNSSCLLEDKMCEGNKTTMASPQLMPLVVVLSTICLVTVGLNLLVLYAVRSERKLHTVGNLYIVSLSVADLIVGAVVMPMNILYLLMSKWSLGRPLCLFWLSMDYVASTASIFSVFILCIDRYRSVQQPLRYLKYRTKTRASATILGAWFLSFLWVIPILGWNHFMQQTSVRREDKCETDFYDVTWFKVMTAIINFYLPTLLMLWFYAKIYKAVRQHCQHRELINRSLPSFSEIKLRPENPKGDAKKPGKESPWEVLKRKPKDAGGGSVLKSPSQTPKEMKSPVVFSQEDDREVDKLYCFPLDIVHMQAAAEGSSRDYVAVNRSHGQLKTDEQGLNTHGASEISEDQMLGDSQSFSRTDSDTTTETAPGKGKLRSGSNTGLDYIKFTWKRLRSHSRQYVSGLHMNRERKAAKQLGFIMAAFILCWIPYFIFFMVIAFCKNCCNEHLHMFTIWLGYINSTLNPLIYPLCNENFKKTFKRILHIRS
T7 sequence (P22303 32-614): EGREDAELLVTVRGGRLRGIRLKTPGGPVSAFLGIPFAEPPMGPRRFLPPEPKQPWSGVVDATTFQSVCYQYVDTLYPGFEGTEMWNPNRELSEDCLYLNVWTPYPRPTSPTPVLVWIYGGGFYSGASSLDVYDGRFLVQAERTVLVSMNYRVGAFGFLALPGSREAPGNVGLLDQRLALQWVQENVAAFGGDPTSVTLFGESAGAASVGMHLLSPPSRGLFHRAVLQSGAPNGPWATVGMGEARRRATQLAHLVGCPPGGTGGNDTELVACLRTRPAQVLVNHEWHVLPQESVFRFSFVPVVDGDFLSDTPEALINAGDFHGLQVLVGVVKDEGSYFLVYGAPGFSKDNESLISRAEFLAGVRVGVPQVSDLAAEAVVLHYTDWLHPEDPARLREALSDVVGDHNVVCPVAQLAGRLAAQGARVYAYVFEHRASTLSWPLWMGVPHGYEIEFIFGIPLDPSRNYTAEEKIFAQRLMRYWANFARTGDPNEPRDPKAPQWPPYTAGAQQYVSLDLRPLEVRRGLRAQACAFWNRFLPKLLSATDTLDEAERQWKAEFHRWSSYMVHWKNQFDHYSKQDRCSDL
T3 sequence (P31645 whole entry): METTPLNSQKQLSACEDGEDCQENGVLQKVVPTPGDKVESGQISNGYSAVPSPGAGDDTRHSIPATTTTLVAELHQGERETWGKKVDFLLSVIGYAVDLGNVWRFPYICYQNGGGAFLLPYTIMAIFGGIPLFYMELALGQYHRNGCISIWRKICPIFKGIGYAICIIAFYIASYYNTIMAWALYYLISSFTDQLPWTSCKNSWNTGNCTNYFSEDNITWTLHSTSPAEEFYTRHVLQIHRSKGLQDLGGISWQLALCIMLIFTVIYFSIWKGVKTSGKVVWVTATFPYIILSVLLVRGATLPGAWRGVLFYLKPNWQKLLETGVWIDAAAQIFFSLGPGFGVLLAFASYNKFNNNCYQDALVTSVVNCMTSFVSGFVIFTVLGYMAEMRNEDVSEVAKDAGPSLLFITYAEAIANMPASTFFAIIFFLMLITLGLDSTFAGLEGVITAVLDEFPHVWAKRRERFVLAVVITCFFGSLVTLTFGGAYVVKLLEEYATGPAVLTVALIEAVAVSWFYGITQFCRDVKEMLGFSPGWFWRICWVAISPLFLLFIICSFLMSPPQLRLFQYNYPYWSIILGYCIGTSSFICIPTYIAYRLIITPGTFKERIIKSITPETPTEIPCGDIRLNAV
T6 sequence (P35462 whole entry): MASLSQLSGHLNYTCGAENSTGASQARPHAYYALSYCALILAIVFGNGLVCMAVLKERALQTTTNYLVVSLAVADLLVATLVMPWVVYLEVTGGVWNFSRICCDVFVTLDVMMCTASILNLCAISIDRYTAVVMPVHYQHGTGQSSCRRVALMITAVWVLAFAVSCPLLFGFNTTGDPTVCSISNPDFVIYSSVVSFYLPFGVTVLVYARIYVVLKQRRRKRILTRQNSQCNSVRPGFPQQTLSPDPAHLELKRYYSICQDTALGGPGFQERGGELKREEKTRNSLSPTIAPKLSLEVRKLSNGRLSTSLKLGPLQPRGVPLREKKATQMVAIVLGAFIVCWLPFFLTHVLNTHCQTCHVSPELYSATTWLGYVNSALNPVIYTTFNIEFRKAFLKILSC

| SMILES | inhibition at 1 µM (M5 (h); read-out: % Inhibition 1st) [%] | inhibition at 1 µM (M5 (h); read-out: % Inhibition 2nd) [%] | inhibition at 1 µM (M5 (h); read-out: % Inhibition Mean) [%] | inhibition at 1 µM (H1 (h); read-out: % Inhibition 1st) [%] | inhibition at 1 µM (H1 (h); read-out: % Inhibition 2nd) [%] | inhibition at 1 µM (H1 (h); read-out: % Inhibition Mean) [%] | inhibition at 1 µM (5-HT transporter (h); read-out: % Inhibition 1st) [%] | inhibition at 1 µM (5-HT transporter (h); read-out: % Inhibition 2nd) [%] | inhibition at 1 µM (5-HT transporter (h); read-out: % Inhibition Mean) [%] | inhibition at 1 µM (MAO-A; read-out: % Inhibition 1st) [%] | inhibition at 1 µM (MAO-A; read-out: % Inhibition 2nd) [%] | inhibition at 1 µM (MAO-A; read-out: % Inhibition Mean) [%] | inhibition at 1 µM (5-HT3 (h); read-out: % Inhibition 1st) [%] | inhibition at 1 µM (5-HT3 (h); read-out: % Inhibition 2nd) [%] | inhibition at 1 µM (5-HT3 (h); read-out: % Inhibition Mean) [%] | inhibition at 1 µM (D3 (h); read-out: % Inhibition 1st) [%] | inhibition at 1 µM (D3 (h); read-out: % Inhibition 2nd) [%] | inhibition at 1 µM (D3 (h); read-out: % Inhibition Mean) [%] | inhibition at 1 µM (acetylcholinesterase (h); read-out: % Inhibition 1st) [%] | inhibition at 1 µM (acetylcholinesterase (h); read-out: % Inhibition 2nd) [%] | other results |
| --- | --- | --- | --- | --- | --- | --- | --- | --- | --- | --- | --- | --- | --- | --- | --- | --- | --- | --- | --- | --- | --- |
| Cn1c(=O)n(CCCO)c(=O)c2c1nc(Oc1cccc(OC(F)(F)F)c1)n2Cc1ccc(Cl)cc1 [HC-608] | -15.6 | -12.8 | -14.2 | -8.1 | -0.9 | -4.5 | -6.2 | 4.6 | -0.8 | -3.8 | 3.6 | -0.1 | -4.1 | 9.5 | 2.7 | 4 | 9.7 | 6.9 | -5.9 | -3.5 | inhibition at 1 µM (acetylcholinesterase (h); read-out: % Inhibition Mean): -4.7%; inhibition at 1 µM (PDE5 (h) (non-selective); read-out: % Inhibition 1st): 54.6%; inhibition at 1 µM (PDE5 (h) (non-selective); read-out: % Inhibition 2nd): 59.4%; inhibition at 1 µM (PDE5 (h) (non-selective); read-out: % Inhibition Mean): 57%; inhibition at 1 µM (D4.4 (h); read-out: % Inhibition 1st): -20.4%; inhibition at 1 µM (D4.4 (h); read-out: % Inhibition 2nd): 3.4%; inhibition at 1 µM (D4.4 (h); read-out: % Inhibition Mean): -8.5%; inhibition at 1 µM (D1 (h); read-out: % Inhibition 1st): 1.1%; inhibition at 1 µM (D1 (h); read-out: % Inhibition 2nd): 5%; inhibition at 1 µM (D1 (h); read-out: % Inhibition Mean): 3.1%; inhibition at 1 µM (D2S (h); read-out: % Inhibition 1st): 4.6%; inhibition at 1 µM (D2S (h); read-out: % Inhibition 2nd): 0.2%; inhibition at 1 µM (D2S (h); read-out: % Inhibition Mean): 2.4% |
| Cn1c(=O)n(CCCO)c(=O)c2c1nc(Oc1cccc(Cl)c1)n2Cc1ccc(Cl)cc1 [HC-070] | -7.3 | 10.1 | 1.4 | -15.6 | -11.4 | -13.5 | -0.3 | 18.4 | 9.1 | 12.6 | 13.1 | 12.8 | 4.7 | 2.6 | 3.7 | 3.6 | 6.4 | 5 | 2.1 | -0.7 | inhibition at 1 µM (acetylcholinesterase (h); read-out: % Inhibition Mean): 0.7%; inhibition at 1 µM (PDE5 (h) (non-selective); read-out: % Inhibition 1st): 27.3%; inhibition at 1 µM (PDE5 (h) (non-selective); read-out: % Inhibition 2nd): 50.4%; inhibition at 1 µM (PDE5 (h) (non-selective); read-out: % Inhibition Mean): 38.9%; inhibition at 1 µM (D4.4 (h); read-out: % Inhibition 1st): -15.8%; inhibition at 1 µM (D4.4 (h); read-out: % Inhibition 2nd): -1.8%; inhibition at 1 µM (D4.4 (h); read-out: % Inhibition Mean): -8.8%; inhibition at 1 µM (D1 (h); read-out: % Inhibition 1st): 3%; inhibition at 1 µM (D1 (h); read-out: % Inhibition 2nd): -4.8%; inhibition at 1 µM (D1 (h); read-out: % Inhibition Mean): -0.9%; inhibition at 1 µM (D2S (h); read-out: % Inhibition 1st): -3%; inhibition at 1 µM (D2S (h); read-out: % Inhibition 2nd): 3.4%; inhibition at 1 µM (D2S (h); read-out: % Inhibition Mean): 0.2% |
